{
  "source": "patent US20060223996A1",
  "about": "“IL-12 modulatory compounds” (Synta Pharmaceuticals Corp., priority 2004, published 2006)",
  "data": [
    {"system": "IL-12", "test": "Human in vitro assay: inhibition of IL-12 production in IFNγ/LPS- or IFNγ/SAC-stimulated human PBMC or THP-1 cells (ELISA)", "assay_type": "cell-based", "details": "read-out: IC50 Range (representative in vitro IC50 data)", "summary_of_the_method": "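PBMC (5×10^5 cells/well) primed with IFNγ 30 U/mL for 22 h then LPS 1 μg/mL, or IFNγ 100 U/mL then SAC 0.01%; THP-1 primed with IFNγ 100 U/mL for 22 h then SAC 0.025%, with compound in 0.25% DMSO. Supernatant IL-12 p70/p40 measured by sandwich ELISA after 18 h; IC50 derived; viability by MTS.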", "units": {"IC50": "nM"}, "values": [
      {"smiles": "Cc1[nH]c2ccc(NC(=O)c3cc(OCCS(C)(=O)=O)nc(N4CCOCC4)n3)cc2c1C", "note": "[Compound 249, N-(2,3-dimethyl-1H-indol-5-yl)-6-(2-(methylsulfonyl)ethoxy)-2-morpholinopyrimidine-4-carboxamide]", "IC50": "≥ 1000"},
      {"smiles": "COCCN(C)c1cc(C(=O)Nc2ccc3c(c2)CCN3C(C)=O)nc(N2CCOCC2)n1", "note": "[Compound 206, N-(1-acetylindolin-5-yl)-6-((2-methoxyethyl)(methyl)amino)-2-morpholinopyrimidine-4-carboxamide]", "IC50": "≥ 1000"},
      {"smiles": "COc1ccc(CCOc2cc(C(=O)Nc3cccc(C)c3)cc(N3CCOCC3)n2)cc1OC", "note": "[Compound 65, 2-[2-(3,4-Dimethoxy-phenyl)-ethoxy]-6-morpholin-4-yl-N-m-tolyl-isonicotinamide]", "IC50": "≥ 1000"},
      {"smiles": "CON(CCN1CCOCC1)c1cc(C(=O)Nc2ccc3[nH]c(C)c(C)c3c2)nc(N2CCOCC2)n1", "note": "[Compound 195, N-(2,3-dimethyl-1H-indol-5-yl)-6-(methoxy(2-morpholinoethyl)amino)-2-morpholinopyrimidine-4-carboxamide]", "IC50": "< 1000"},
      {"smiles": "Cc1ccc([N+](=O)[O-])c(NC(=O)c2cc(OCCN3CCOCC3)nc(N3CCOCC3)n2)c1", "note": "[Compound 271, 2-Morpholin-4-yl-6-(2-morpholin-4-yl-ethoxy)-pyrimidine-4-carboxylic acid (5-methyl-2-nitro-phenyl)-amide]", "IC50": "< 1000"},
      {"smiles": "CCc1c[nH]c2ccc(NC(=O)c3cc(N4CCC(O)CC4)cc(N4CCOCC4)n3)cc12", "note": "[Compound 174, 4-Hydroxy-6′-morpholin-4-yl-3,4,5,6-tetrahydro-2H-[1,4′]bipyridinyl-2′-carboxylic acid (3-ethyl-1H-indol-5-yl)-amide]", "IC50": "< 1000"},
      {"smiles": "CCN(CC)C(=O)Nc1cccc(NC(=O)c2cc(OCCN3CCOCC3)nc(N3CCOCC3)n2)c1", "note": "[Compound 198, N-(3-(3,3-diethylureido)phenyl)-2-morpholino-6-(2-morpholinoethoxy)pyrimidine-4-carboxamide]", "IC50": "≥ 1000"},
      {"smiles": "O=C(Nc1cc(OCCN2CCOCC2)nc(N2CCOCC2)n1)Nc1cc(-c2ccco2)n[nH]1", "note": "[Compound 144, 1-(5-Furan-2-yl-2H-pyrazol-3-yl)-3-[2-morpholin-4-yl-6-(2-morpholin-4-yl-ethoxy)-pyrimidin-4-yl]-urea]", "IC50": "≥ 1000"},
      {"smiles": "Cc1ccc(N)c(NC(=O)c2cc(OCCN3CCOCC3)nc(N3CCOCC3)n2)c1", "note": "[Compound 272, 2-Morpholin-4-yl-6-(2-morpholin-4-yl-ethoxy)-pyrimidine-4-carboxylic acid (2-amino-5-methyl-phenyl)-amide]", "IC50": "≥ 1000"},
      {"smiles": "Cc1[nH]c2ccc(NC(=O)c3cc(NCCN(C)C)nc(N4CCOCC4)n3)cc2c1C", "note": "[Compound 95, 6-(2-Dimethylamino-ethylamino)-2-morpholin-4-yl-pyrimidine-4-carboxylic acid (2,3-dimethyl-1H-indol-5-yl)-amide]", "IC50": "< 1000"},
      {"smiles": "O=C(Nc1ccc2[nH]ccc2c1)c1cc(OCCc2ccccn2)nc(N2CCOCC2)n1", "note": "[Compound 4, 2-Morpholin-4-yl-6-(2-pyridin-2-yl-ethoxy)-pyrimidine-4-carboxylic acid (1H-indol-5-yl)-amide]", "IC50": "< 1000"},
      {"smiles": "Cc1c(C)n(C)c2ccc(NC(=O)c3cc(N4CCOCC4)cc(N4CCOCC4)n3)cc12", "note": "[Compound 147, 4,6-Di-morpholin-4-yl-pyridine-2-carboxylic acid (1,2,3-trimethyl-1H-indol-5-yl)-amide]", "IC50": "< 1000"},
      {"smiles": "O=C(Nc1ccc(Nc2ccccc2)cc1)c1cc(OCCN2CCOCC2)nc(N2CCOCC2)n1", "note": "[Compound 284, 2-Morpholin-4-yl-6-(2-morpholin-4-yl-ethoxy)-pyrimidine-4-carboxylic acid (4-phenylamino-phenyl)-amide]", "IC50": "≥ 1000"},
      {"smiles": "CN(C)c1cccc(NC(=O)c2cc(N(C)CC(=O)N3CCCCC3)nc(N3CCOCC3)n2)c1", "note": "[Compound 116, 6-[Methyl-(2-oxo-2-piperidin-1-yl-ethyl)-amino]-2-morpholin-4-yl-pyrimidine-4-carboxylic acid (3-dimethylamino-phenyl)-amide]", "IC50": "< 1000"},
      {"smiles": "CCn1c2ccccc2c2ccc(NC(=O)c3cc(OCCc4ccccn4)nc(N4CCOCC4)n3)cc21", "note": "[Compound 33, 2-Morpholin-4-yl-6-(2-pyridin-2-yl-ethoxy)-pyrimidine-4-carboxylic acid (9-ethyl-9H-carbazol-2-yl)-amide]", "IC50": "≥ 1000"},
      {"smiles": "CN1CCCc2cc(NC(=O)c3cc(OCCN4CCOCC4)nc(N4CCOCC4)n3)ccc21", "note": "[Compound 318, 2-Morpholin-4-yl-6-(2-morpholin-4-yl-ethoxy)-pyrimidine-4-carboxylic acid (1-methyl-1,2,3,4-tetrahydro-quinolin-6-yl)-amide]", "IC50": "≥ 1000"},
      {"smiles": "Cc1cccc(NC(=O)c2cc(N(C)CCO)nc(N3CCOCC3)n2)c1", "note": "[Compound 298, 6-[(2-Hydroxy-ethyl)-methyl-amino]-2-morpholin-4-yl-pyrimidine-4-carboxylic acid m-tolylamide]", "IC50": "< 1000"},
      {"smiles": "COCCN(C)c1cc(C(=O)Nc2ccc3nc(C)ccc3c2)nc(N2CCOCC2)n1", "note": "[Compound 202, 6-((2-methoxyethyl)(methyl)amino)-N-(2-methylquinolin-6-yl)-2-morpholinopyrimidine-4-carboxamide]", "IC50": "≥ 1000"},
      {"smiles": "COCCN(C)c1cc(C(=O)Nc2cccc(N(C)C)c2)nc(N2CCOCC2)c1", "note": "[Compound 159, 4-[(2-Methoxy-ethyl)-methyl-amino]-6-morpholin-4-yl-pyridine-2-carboxylic acid (3-dimethylamino-phenyl)-amide]", "IC50": "< 1000"},
      {"smiles": "COC(=O)NCCOc1cc(C(=O)Nc2ccc3[nH]c(C)c(C)c3c2)nc(N2CCOCC2)n1", "note": "[Compound 294, {2-[6-(2,3-Dimethyl-1H-indol-5-ylcarbamoyl)-2-morpholin-4-yl-pyrimidin-4-yloxy]-ethyl}-carbamic acid methyl ester]", "IC50": "< 1000"},
      {"smiles": "COCCN(C)c1cc(C(=O)Nc2cccc(N(C)C(C)=O)c2)nc(N2CCOCC2)n1", "note": "[Compound 166, 6-[(2-Methoxy-ethyl)-methyl-amino]-2-morpholin-4-yl-pyrimidine-4-carboxylic acid [3-(acetyl-methyl-amino)-phenyl]-amide]", "IC50": "≥ 1000"},
      {"smiles": "O=C(Nc1cc(OCCN2CCOCC2)nc(N2CCOCC2)n1)Nc1ccccc1Br", "note": "[Compound 129, 1-(2-Bromo-phenyl)-3-[2-morpholin-4-yl-6-(2-morpholin-4-yl-ethoxy)-pyrimidin-4-yl]-urea]", "IC50": "≥ 1000"},
      {"smiles": "CN1CCCc2ccc(NC(=O)c3cc(OCCN4CCOCC4)nc(N4CCOCC4)n3)cc21", "note": "[Compound 317, 2-Morpholin-4-yl-6-(2-morpholin-4-yl-ethoxy)-pyrimidine-4-carboxylic acid (1-methyl-1,2,3,4-tetrahydro-quinolin-7-yl)-amide]", "IC50": "< 1000"},
      {"smiles": "CO/N=C(\\C)c1cccc(NC(=O)c2cc(OCCN3CCOCC3)nc(N3CCOCC3)n2)c1", "note": "[Compound 154, (E)-N-(3-(1-(methoxyimino)ethyl)phenyl)-2-morpholino-6-(2-morpholinoethoxy)pyrimidine-4-carboxamide]", "IC50": "< 1000"},
      {"smiles": "Cc1c(C)n(O)c2ccc(NC(=O)c3cc(OCCN4CCOCC4)nc(N4CCOCC4)n3)cc12", "note": "[Compound 320, 2-Morpholin-4-yl-6-(2-morpholin-4-yl-ethoxy)-pyrimidine-4-carboxylic acid (1-hydroxy-2,3-dimethyl-1H-indol-5-yl)-amide]", "IC50": "< 1000"},
      {"smiles": "Cc1ccc2nc(NC(=O)c3cc(OCCc4ccccn4)nc(N4CCOCC4)n3)sc2c1", "note": "[Compound 32, 2-Morpholin-4-yl-6-(2-pyridin-2-yl-ethoxy)-pyrimidine-4-carboxylic acid (6-methyl-benzothiazol-2-yl)-amide]", "IC50": "≥ 1000"},
      {"smiles": "Cc1cccc(NC(=O)CNc2cc(C(=O)Nc3ccc4[nH]c(C)c(C)c4c3)nc(N3CCOCC3)n2)c1", "note": "[Compound 111, 2-Morpholin-4-yl-6-[(m-tolylcarbamoyl-methyl)-amino]-pyrimidine-4-carboxylic acid (2,3-dimethyl-1H-indol-5-yl)-amide]", "IC50": "< 1000"},
      {"smiles": "O=C(Nc1cc(OCCN2CCOCC2)nc(N2CCOCC2)n1)Nc1nnc(C2CC2)s1", "note": "[Compound 141, 1-(5-Cyclopropyl-[1,3,4]thiadiazol-2-yl)-3-[2-morpholin-4-yl-6-(2-morpholin-4-yl-ethoxy)-pyrimidin-4-yl]-urea]", "IC50": "≥ 1000"},
      {"smiles": "O=C(Nc1ccc2ncccc2c1)c1cc(OCCc2ccccn2)nc(N2CCOCC2)n1", "note": "[Compound 38, 2-Morpholin-4-yl-6-(2-pyridin-2-yl-ethoxy)-pyrimidine-4-carboxylic acid quinolin-6-ylamide]", "IC50": "≥ 1000"},
      {"smiles": "O=C(Nc1nnc(C2CC2)s1)c1cc(OCCN2CCOCC2)nc(N2CCOCC2)n1", "note": "[Compound 163, 2-Morpholin-4-yl-6-(2-morpholin-4-yl-ethoxy)-pyrimidine-4-carboxylic acid (5-cyclopropyl-[1,3,4]thiadiazol-2-yl)-amide]", "IC50": "≥ 1000"},
      {"smiles": "C/C(=N\\N(C)C)c1cccc(NC(=O)c2cc(OCCN3CCOCC3)nc(N3CCOCC3)n2)c1", "note": "[Compound 153, (E)-N-(3-(1-(2,2-dimethylhydrazono)ethyl)phenyl)-2-morpholino-6-(2-morpholinoethoxy)pyrimidine-4-carboxamide]", "IC50": "< 1000"},
      {"smiles": "CN(C)c1cccc(NC(=O)c2cc(OCCO)nc(N3CCOCC3)n2)c1", "note": "[Compound 309, 6-(2-Hydroxy-ethoxy)-2-morpholin-4-yl-pyrimidine-4-carboxylic acid (3-dimethylamino-phenyl)-amide]", "IC50": "< 1000"},
      {"smiles": "Cc1[nH]c2ccc(NC(=O)c3cc(NCC(=O)N4CCCC4)nc(N4CCOCC4)n3)cc2c1C", "note": "[Compound 108, 2-Morpholin-4-yl-6-(2-oxo-2-pyrrolidin-1-yl-ethylamino)-pyrimidine-4-carboxylic acid (2,3-dimethyl-1H-indol-5-yl)-amide]", "IC50": "< 1000"},
      {"smiles": "CON(C)c1cc(C(=O)Nc2ccc3[nH]c(C)c(C)c3c2)nc(N2CCOCC2)n1", "note": "[Compound 193, N-(2,3-dimethyl-1H-indol-5-yl)-6-(methoxy(methyl)amino)-2-morpholinopyrimidine-4-carboxamide]", "IC50": "< 1000"}
    ]}
  ]
}
